Source: paper PMC11066040, “Nuclear phosphoinositide signaling promotes YAP/TAZ-TEAD transcriptional activity in breast cancer” (The EMBO Journal, 2024)

Experiments:
GST-YAP [1] = target: T1, GST-YAP (Homo sapiens, UniProt P46937); test: microscale thermophoresis; type: binding
T1 construct: gene YAP1

GST-YAP [2] = target: T1, GST-YAP; test: microscale thermophoresis; type: binding; conditions: pH 8.0, 50 mM NaCl, 80 mM KCl, 0.05% Tween-20; fluorescently labeled GST-YAP

T1 sequence (P46937 whole entry): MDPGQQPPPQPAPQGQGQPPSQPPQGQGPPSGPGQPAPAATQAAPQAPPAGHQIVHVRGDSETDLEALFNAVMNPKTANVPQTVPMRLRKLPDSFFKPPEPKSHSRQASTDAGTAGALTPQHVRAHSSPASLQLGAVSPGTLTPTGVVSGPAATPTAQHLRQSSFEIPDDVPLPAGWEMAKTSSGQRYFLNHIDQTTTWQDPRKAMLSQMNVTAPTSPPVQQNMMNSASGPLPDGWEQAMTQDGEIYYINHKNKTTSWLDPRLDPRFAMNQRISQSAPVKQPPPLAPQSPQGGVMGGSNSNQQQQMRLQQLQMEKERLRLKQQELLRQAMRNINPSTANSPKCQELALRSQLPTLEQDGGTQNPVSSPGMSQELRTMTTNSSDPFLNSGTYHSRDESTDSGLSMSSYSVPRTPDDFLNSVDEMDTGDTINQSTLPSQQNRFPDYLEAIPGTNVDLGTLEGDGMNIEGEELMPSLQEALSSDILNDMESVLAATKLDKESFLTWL

SMILES | Kd (GST-YAP [1]) | binding (GST-YAP [2])
CCCCC/C=C\C/C=C\C/C=C\C/C=C\CCCC(=O)O[C@H](COC(=O)CCCCCCCCCCCCCCCCC)COP(=O)(O)O[C@H]1[C@H](O)[C@@H](OP(=O)(O)O)[C@H](OP(=O)(O)O)[C@@H](OP(=O)(O)O)[C@H]1O [PI(3,4,5)P3] | 8.13 ± 2.63 nM | 
CCCCC/C=C\C/C=C\C/C=C\C/C=C\CCCC(=O)O[C@H](COC(=O)CCCCCCCCCCCCCCCCC)COP(=O)(O)O[C@@H]1[C@H](O)[C@H](O)[C@@H](OP(=O)(O)O)[C@H](OP(=O)(O)O)[C@H]1O [PI(4,5)P2] | 166 ± 13.5 nM | 
CCCCC/C=C\C/C=C\C/C=C\C/C=C\CCCC(=O)O[C@H](COC(=O)CCCCCCCCCCCCCCCCC)COP(=O)(O)O[C@@H]1[C@H](O)[C@H](O)[C@@H](O)[C@H](O)[C@H]1O [PI] |  | No significant binding of GST-YAP with PI was detected
